US6592910B1, “Methods of treating clinical diseases with isoflavones” (Board of Trustees, Southern Illinois University, priority 1999, dated 2003)
Marks after values point to notes of the source that are not given here.

How the values were obtained:
[1] = tested on: Cu,Zn superoxide Dimutase (SOD); test: Liver Cu,Zn superoxide dimutase activity in injected rats; assay type: in vivo, rat; details: daily s.c. injection, 6 weeks; P<0.05
Protocol: (§1) Forty male Sprague-Dawley rats (5 wk old, n=9-10 rats/treatment, from Harlan Sprague-Dawley, Inc., Indianapolis, Ind.) were injected with either genistein (G), daidzein (D), estradiol (E), or a vehicle control (V). Each animal in group V received a daily 0.1 cc subcutaneous injection, for six weeks, of a 10% ethanol-90% olive oil solution; the other treatments received their respective compound as a daily 0.1 cc subcutaneous injection, for six weeks, e.g., 0.1 μg of compound/g of body weight, in a 10% ethanol-90% olive oil solution.
The activity or level of antioxidant enzymes (AOE), catalase (CAT) and Cu,Zn superoxide Dimutase (SOD) in rat liver, were measured to determine the effect of administration of G, D, and E injections on free radical defense systems. A 50 mg piece of whole frozen liver was removed and sonicated in TBS plus 1% Triton X-100. The samples were then centrifuged at 13,000×g for 25 min at 4° C., and the supernatant was collected. Total protein concentration was assayed for subsequent determinations of hepatic AOE activity or absolute level per milligram total protein. SOD activity was determined by spectrophotometry at I=560 nm using xanthine/xanthine oxidase as a superoxide generator and measured against a standard curve of known SOD activities (Sun et al. 1988, 1994). Catalase levels were determined bv Slot blot, which was performed following a representative Western blot that detected no nonspecific binding (Tobin et al. 1979). The bands corresponding to catalase were quantified by densitometry.
(§2) These studies used a randomized design. All data were analyzed by one-way analysis of variance (ANOVA) and post-hoc comparisons were made with Tukey pairwise comparisons test. Significance was confirmed at P≦0.05 (SYSTAT 7.0, SPSS INC., 1997), and all values are reported as means±standard error of the mean.

male Sprague-Dawley rats [2] = test: Liver weight, cholesterol and triglyceride in male Sprague-Dawley rats injected for 6 weeks; assay type: in vivo, rat; details: for Liver total triglycerides: as triolein; for Liver total triglycerides / Liver cholesteryl esters / Liver total cholesterol / Liver unesterified cholesterol / Liver weight: daily s.c. injection, 6 weeks; for liver weight as a % of body weight, compared with V: rat, in vivo
Protocol: (§3) Forty male Sprague-Dawley rats (5 wk old, n=9-10 rats/treatment, from Harlan Sprague-Dawley, Inc., Indianapolis, Ind.) were injected with either genistein (G), daidzein (D), estradiol (E), or a vehicle control (V). Each animal in group V received a daily 0.1 cc subcutaneous injection, for six weeks, of a 10% ethanol-90% olive oil solution; the other treatments received their respective compound as a daily 0.1 cc subcutaneous injection, for six weeks, e.g., 0.1 μg of compound/g of body weight, in a 10% ethanol-90% olive oil solution. Animal weight and feed intake were measured weekly during the six week study, and the subsequent feed-efficiency ratio [FER (g of weight change/g of feed intake)] was determined. Following sacrifice, the abdominal fat pads, liver, and reproductive organs were removed and weighed for comparison. Collected blood was heparinized and centrifuged, plasma aliquots were then used for glucose and total cholesterol determinations, using standard glucose oxidase (Fisher Scientific, St. Louis, Mo.) and cholesterol kits (Fisher Scientific, St. Louis, Mo.). Liver cholesterol and triglyceride analysis. Analytical procedures for determination of liver total cholesterol, unesterified cholesterol, cholesteryl ester, and triglyceride concentrations were as described in Example 1. These studies used a randomized design. All data were analyzed by one-way analysis of variance (ANOVA) and post-hoc comparisons were made with Tukey pairwise comparisons test. Significance was confirmed at P≦0.05 (SYSTAT 7.0, SPSS INC., 1997), and all values are reported as means±standard error of the mean.

male Sprague-Dawley rats [3] = test: Feed and weight measurements in male Sprague-Dawley rats injected for 6 weeks; assay type: in vivo, rat; details: for Fat Weight: visceral fat
Protocol: as §1
Animal weight and feed intake were measured weekly during the six week study, and the subsequent feed-efficiency ratio [FER (g of weight change/g of feed intake)] was determined. Following sacrifice, the abdominal fat pads, liver, and reproductive organs were removed and weighed for comparison.
as §2

[4] = tested on: stenotic arteries of female macaques; details: intravenous infusion; cited from earlier work
male Sprague-Dawley rats [5] = test: Plasma glucose and plasma total cholesterol in male Sprague-Dawley rats injected for 6 weeks; assay type: in vivo, rat; details: 6 weeks injection
Protocol: as §3, with “solution.” for “solution. Animal weight and feed intake were measured weekly during the six week study, and the subsequent feed-efficiency ratio [FER (g of weight change/g of feed intake)] was determined. Following sacrifice, the abdominal fat pads, liver, and reproductive organs were removed and weighed for comparison.”

Structure (SMILES) | elevation of liver SOD activity over vehicle controls [1] | Liver triglyceride concentrations compared to the E treatment (male Sprague-Dawley rats [2]; P<0.05) | Liver weights vs the V group (male Sprague-Dawley rats [2]; P<0.05) | Liver total triglycerides (male Sprague-Dawley rats [2]) | Liver cholesteryl esters (male Sprague-Dawley rats [2]) | Liver total cholesterol (male Sprague-Dawley rats [2]) | Liver unesterified cholesterol (male Sprague-Dawley rats [2]) | Liver weight (male Sprague-Dawley rats [2]) | liver weight as a % of body weight, compared with V (male Sprague-Dawley rats [2]) | Body Weight (male Sprague-Dawley rats [3]; daily s.c. injection, 6 weeks) | Fat Weight (male Sprague-Dawley rats [3]; daily s.c. injection, 6 weeks) | vasoconstriction in stenotic arteries [4] | plasma cholesterol levels vs the V group (male Sprague-Dawley rats [5]) | Prostate Weight (male Sprague-Dawley rats [3]; daily s.c. injection, 6 weeks) | Testis Weight (male Sprague-Dawley rats [3]; daily s.c. injection, 6 weeks) | Body, testis, and prostate weight compared to D, G, and V treated animals (male Sprague-Dawley rats [3]; rat, in vivo)
O=c1c(-c2ccc(O)cc2)coc2cc(O)ccc12 [D, daidzein] | approximately 33% | significantly (P<0.05) lower | considerably (P<0.05) lower | 17.980 μmol/g liver | 3.114 μmol/g liver | 5.678 μmol/g liver | 2.563 μmol/g liver | 12.857^a g | reduction in relative liver mass | 367.89 g | 11.66 g | – | – | – | – | –
O=c1c(-c2ccc(O)cc2)coc2cc(O)cc(O)c12 [G, genistein] | 15% | – | considerably (P<0.05) lower | 29.528 μmol/g liver | 2.589 μmol/g liver | 5.189 μmol/g liver | 2.600 μmol/g liver | 12.970^a g | reduction in relative liver mass | 363.00 g | 11.19 g | rapid inhibition | non-significant trend (P<0.5) toward lower | .732 g | 2.90 g | –
C[C@]12CC[C@@H]3c4ccc(O)cc4CC[C@H]3[C@@H]1CC[C@@H]2O [E, estradiol, reference compound] | approximately 33% | – | – | 32.186^c μmol/g liver | 4.104^a,b μmol/g liver | 6.722^a,b,c μmol/g liver | 2.618 μmol/g liver | 10.487^a,b,c g | – | 242.50^a,b,c g | 6.71^a,b,c g | – | – | – | – | markedly (P<0.05) lower
